Laboratory results reported in ChEMBL document CHEMBL3988442, “University of Dundee, Small-Polar-MMV Screening Library” (2021).
Values joined by “and” are separate entries in the source; they are usually repeats but may differ in a detail not shown here. Equal values may be shown once.

System: Leishmania donovani
Experiment: Leishmania intramacrophage assay
Format: functional, organism-based
Details: for IC50: Leishmania donovani

| SMILES | IC50 | pIC50 |
| --- | --- | --- |
| CC(C)C[C@H](N)C(=O)N1CC2(CCNCC2)c2cc(Cl)ccc21.Cl.Cl |  | 4.898 and 5.256 |
| CN(c1ncnc2c1cnn2C)C1CCCN(c2cccnn2)C1 (stereo not given) | > 50.1 µM |  |
| CN(C)C(=O)N1CCN(c2ccc3ccc(C(=O)NC4CC4)cn23)CC1 | > 50.1 µM |  |
| CN1CCN(C2COC3(CCN(Cc4cccs4)CC3)C2)CC1 (stereo not given) | > 50.1 µM |  |
| CCc1nc2c(N3CCC4(CC3)CC(=O)N(CC(C)C)C4)ncnc2o1 | > 50.1 µM | 4.305 |
| Cc1cc(C(F)(F)F)nc(N2CCN3CCCC3C2)n1 (stereo not given) | > 50.1 µM |  |
| COc1ccc(OCc2sc(C3(O)CCCNCC3)nc2C)cc1 (stereo not given) | > 50.1 µM |  |
| O=C(c1cc[nH]n1)N1CCC(F)(F)C2(CCN(c3ccccn3)C2)C1 (stereo not given) | > 50.1 µM |  |
| Cc1nc(NCc2noc(C3CCCO3)n2)c2ccsc2n1 (stereo not given) | > 50.1 µM |  |
| Cn1cc(CN2CCC(F)(F)C3(CCN(c4cccnc4)C3)C2)cn1 (stereo not given) | > 50.1 µM |  |
| CN(CC1CC1)c1ccc2ccc(C(=O)NCCc3ccccc3)cn12 | > 50.1 µM |  |
| CN(C)C(=O)C1CCN(c2cncc(-n3cccn3)n2)CC1 | > 50.1 µM |  |
| CCN(CC)c1ccc2ccc(C(=O)NC3CC3)cn12 | > 50.1 µM |  |
| O=C(CO)N1CCC(F)(F)C2(CCN(c3ccccc3)C2)C1 (stereo not given) | > 50.1 µM |  |
| COCc1ccc(CNC(=O)C2=NN(c3ccccc3)C(=O)CN2)cc1 | > 50.1 µM |  |
| NC(=O)C1CCN(c2cncc(-n3cccn3)n2)CC1 | > 50.1 µM |  |
| CNS(=O)(=O)c1cccc(C(C)NCc2cccc(OC)c2)c1 (stereo not given) | > 50.1 µM |  |
| COCCN(C)C1COC2(CCN(Cc3cccc(F)c3)CC2)C1 (stereo not given) | > 50.1 µM |  |
| O=C(NC1COC2(CCN(Cc3ccccn3)CC2)C1)c1ccccn1 (stereo not given) | > 50.1 µM |  |
| CN(CCc1noc(C2CC2)n1)C(=O)CN1C(=O)COc2ccccc21 | > 50.1 µM |  |
| CCc1ccc(CN2CCC3(CC2)CC(N2CCN(C)CC2)CO3)cc1.O=C(O)C(F)(F)F (stereo not given) |  | 4.908 and 5.404 |
| CN(C)C1COC2(CCN(Cc3ccc4c(c3)OCO4)CC2)C1 (stereo not given) | > 50.1 µM |  |
| COc1ccc(CNc2cnn(C)c(=O)c2Cl)cc1 | > 50.1 µM |  |
| CCC(=O)N1CCC2(C=C(C(=O)N(C)C)c3ccccc32)CC1 | > 50.1 µM |  |

| SMILES | IC50 | pIC50 |
| --- | --- | --- |
| COCc1noc(CNc2nc(C3CCCC3)nc3c2CCNCC3)n1 | > 50.1 µM |  |
| CN1CCCC(Cc2cncc(Br)c2)CC1 (stereo not given) | > 50.1 µM |  |
| COC(=O)c1sc2nc3c(c(C(F)(F)F)c2c1N)CN(C(C)=O)CC3 | > 50.1 µM |  |
| O=C(c1c[nH]cn1)N1CCC(F)(F)C2(CCN(c3ncccn3)C2)C1 (stereo not given) | > 50.1 µM |  |
| CN1CCN(C2COC3(CCN(Cc4ccsc4)CC3)C2)CC1 (stereo not given) | > 50.1 µM |  |
| COc1ccc(CNC(=O)C2=NN(c3ccc(C)cc3)C(=O)CN2)cc1 | > 50.1 µM |  |
| c1cnc(-c2nc(CN3CCCN(Cc4cccs4)CC3)cs2)nc1 | > 50.1 µM |  |
| CN(C)C(=O)CNC(=O)c1ccc2ccc(N(C)CC3CC3)n2c1 | > 50.1 µM |  |
| CCc1nnc(CN2CCN(c3cccc(OC)c3)C(=O)C2)o1 | > 50.1 µM |  |
| O=C(NCc1ccccn1)C1=NN(c2ccccc2)C(=O)CN1 | > 50.1 µM |  |
| Cc1nccn1CCCn1cncc1-c1ccc2c(c1)CCCN2C | > 50.1 µM |  |
| Cc1sc2nc(CCN)nc(N3CCS(=O)(=O)CC3)c2c1C | > 50.1 µM |  |
| Cn1cc(CN2CCC(F)(F)C3(CCN(c4cccc(F)c4)C3)C2)cn1 (stereo not given) | > 50.1 µM |  |
| COc1cccc(CNCC2CN(C)CCO2)c1 (stereo not given) | > 50.1 µM |  |
| NCC1CN(c2nc(-c3ccccc3)nc3c2CCNCC3)CCO1 (stereo not given) | > 50.1 µM |  |
| CN(C)C1COC2(CCN(Cc3ccncc3)CC2)C1 (stereo not given) | > 50.1 µM |  |
| c1ccc(COC2CCN(c3cncc(-n4cccn4)n3)CC2)cc1 | > 50.1 µM |  |
| Cc1cc(N(C)CC2COc3ccccc3O2)nc(C)n1 (stereo not given) | > 50.1 µM |  |
| CC(C)OCCN1CCC(N2CCN(C)C2=O)CC1 | > 50.1 µM |  |
| CC(C)n1nnc2c(sc3nc(N4CCOCC4)c4c(c32)CCC4)c1=O | > 50.1 µM |  |
| Cc1cc(=O)n2nc(Oc3ccc(Cl)c(C)c3)sc2n1 | > 50.1 µM | 4.378 |
| Cc1ccc(-c2cc(C(F)(F)F)nc(N3CCOCC3)n2)s1 | > 50.1 µM |  |
| CC1CCCN(Cc2coc(-c3cccc(F)c3)n2)C1 (stereo not given) | > 50.1 µM |  |
| CC(=O)N1CCc2nc3sc(C(N)=O)c(N)c3c(C(F)(F)F)c2C1 | > 50.1 µM |  |

Second part, the compound after the results:

| IC50 | pIC50 | SMILES |
| --- | --- | --- |
| > 50.1 µM |  | CO[C@H]1[C@@H]2CC[C@H]1CN(c1nc(C)nc3sccc13)C2 |
| > 50.1 µM |  | O=c1[nH]cccc1-c1nccc(C2(c3ccccc3Cl)CCNCC2)n1 |
| > 50.1 µM |  | CCOCCN(CCOCC)c1nc(C)nc2sccc12 |
| 24.6 µM |  | CCOc1cc(CNCCCn2ccnc2)cc(Cl)c1OC |
| > 50.1 µM |  | O=C(c1cnccn1)N1CCC(F)(F)C2(CCN(c3ccccn3)C2)C1 (stereo not given) |
| 24.4 µM |  | CCN(CC)c1ccc2ccc(C(=O)N3CCCCO3)cn12 |
| > 50.1 µM |  | FC1(F)CCN(Cc2ccccn2)CC12CCN(c1ncccn1)C2 (stereo not given) |
| 17.4 µM | 4.615 | COCCNc1nc(C2CCCC2)nc2c1CCNCC2 |
| > 50.1 µM |  | O=C(NCc1cccnc1)C1=NN(c2ccccc2)C(=O)CN1 |
| 46.2 µM |  | Cc1sc2nc(C(F)(F)F)nc(N3CCCN(C)CC3)c2c1C |
| > 50.1 µM |  | Cc1nnc(NCC2(c3ccccc3)CCC2)c(C#N)c1C |
| > 50.1 µM |  | Clc1ccccc1C1(c2ccnc(-c3ncccn3)n2)CCNCC1 |
| > 50.1 µM |  | FC1(F)CCN(Cc2cccnc2)CC12CCN(c1cnccn1)C2 (stereo not given) |
| > 50.1 µM |  | Cc1nc(NCc2cccnc2)c2c(n1)c(C)nn2C |
| > 50.1 µM |  | Cc1cc(C(F)(F)F)nc(CCNc2nc(C)nc3sccc23)n1 |
| > 50.1 µM |  | CCN(CC)c1ccc2ccc(C(=O)N(C)C)cn12 |
| 21.5 µM | 4.89 | CN(Cc1cc2cc(F)ccc2[nH]1)c1cc(C2CCCNC2)ncn1 (stereo not given) |
| > 50.1 µM |  | COCc1nc(CNc2cccc(-c3ncon3)c2)cs1 |
| > 50.1 µM |  | Cc1cnn(-c2cccc(N3CCCC3)n2)c1 |
| 38.5 µM |  | CCOc1ccc(Cl)cc1CNCCCn1ccnc1 |
| > 50.1 µM |  | CN1CCN(c2ccc3ccc(C(=O)N4CCCO4)cn23)CC1 |
| > 50.1 µM |  | O=C(c1c[nH]cn1)N1CCC(F)(F)C2(CCN(c3cnccn3)C2)C1 (stereo not given) |
| > 50.1 µM |  | COCCNC(=O)c1ccc2ccc(N(C)CC3CC3)n2c1 |
| > 50.1 µM |  | Cc1nn(C)cc1-c1cc(C(F)(F)F)nc(NC2CCN(C)CC2)n1 |

| IC50 | pIC50 | SMILES |
| --- | --- | --- |
| > 50.1 µM |  | CCN1CCC2(C=C(C(=O)N(C)C)c3ccccc32)CC1 |
| > 50.1 µM |  | Cc1sc2nc(C(F)(F)F)nc(N3CCN(C)CC3)c2c1C |
| > 50.1 µM |  | FC1(F)CCN(Cc2cccnc2)CC12CCN(c1ccccn1)C2 (stereo not given) |
| > 50.1 µM |  | CN(Cc1ccncc1)C1COC2(CCN(Cc3ccco3)CC2)C1 (stereo not given) |
| > 50.1 µM |  | CC(C(=O)NCc1ccnc(N(C)C)c1)n1cccn1 (stereo not given) |
| > 50.1 µM |  | FC1(F)CCN(c2ccccc2)CC12CCN(c1ncccn1)C2 (stereo not given) |
| > 50.1 µM |  | Cc1cc(C(F)(F)F)nc(N2CCN(Cc3nccn3C)CC2)n1 |
| 7.08 µM |  | CCOc1cc(CNCCCn2ccnc2)cc(Cl)c1OCC |
| > 50.1 µM | 4.374 | CCOc1ccc(-c2c(-c3ccccc3)ncn2C2CCNC2)cn1 (stereo not given) |
| > 50.1 µM |  | Cc1nc(NCc2nnc(C)n2C)c2c(CC(C)C)csc2n1 |
| > 50.1 µM |  | COCCN(Cc1sccc1C)c1nc(C)nc2sccc12 |
| > 50.1 µM |  | CNC(=O)[C@@H]1C[C@H]2CN(Cc3ccco3)C[C@H]2N1C |
| > 50.1 µM |  | Cc1cc(N(C)CC2COc3ccccc3O2)nc(N)n1 (stereo not given) |
| > 50.1 µM |  | CCn1ncc(-c2cc(C(F)F)nc3sc(C(N)=O)c(N)c23)c1C |
| > 50.1 µM |  | O=C(C1CCC1)N1CCC(c2ncc3c(n2)CCNC3)CC1 |
| > 50.1 µM |  | CC(NC(=O)NCCCn1ccnc1)c1ccc2c(c1)OCCCO2 (stereo not given) |
| > 50.1 µM |  | Cn1nc(COc2cccnc2)c2c1CCN(CC1CC1)C2 |
| 22.5 µM | 4.744 | COc1ccc(-c2cc(CNc3ncnc4c3CCNCC4)no2)cc1 |
| > 50.1 µM |  | Cc1nccn1CC1CCCN(C(=O)Cc2ccsc2)C1 (stereo not given) |
| > 50.1 µM |  | OC(c1ccccc1)C1CCN(Cc2csc(-c3ncccn3)n2)CC1 (stereo not given) |
| > 50.1 µM |  | O=C(O)C1CCCN1c1nc(-c2ccc(Cl)cc2)cc(C(F)(F)F)n1 (stereo not given) |
| > 50.1 µM |  | Cc1c(-c2cc(C(F)F)nc3sc(C(N)=O)c(N)c23)cnn1C |
| > 50.1 µM |  | CCN(CC)c1ccc2ccc(C(=O)N(CCOC)CCOC)cn12 |
| > 50.1 µM |  | Cc1sc2nc(CCN)nc(N(CCN(C)C)CC3CCCO3)c2c1C (stereo not given) |

| IC50 | pIC50 | SMILES |
| --- | --- | --- |
| > 50.1 µM |  | CN(c1ncnc2sccc12)C1CCCN(c2cccnn2)C1 (stereo not given) |
| > 50.1 µM |  | O=C(c1c[nH]cn1)N1CCC(F)(F)C2(CCN(c3ccccn3)C2)C1 (stereo not given) |
| 4.47 µM | 5.277 | COc1cccc(Nc2nc(N3CCCC3)nc3c2CNCC3)c1.Cl |
| 13.6 µM |  | CN1CCN(CC(NCc2ccc(F)cc2)c2ccccc2)CC1 (stereo not given) |
| > 50.1 µM |  | CN(Cc1ccncc1)C1COC2(CCN(Cc3ccccn3)CC2)C1 (stereo not given) |
| > 50.1 µM |  | FC1(F)CCN(Cc2ccncc2)CC12CCN(c1cccnc1)C2 (stereo not given) |
| 27.5 µM | 4.717 | Cc1cc2c(c(-c3cncc(C(=O)N4CCCC4)n3)c1)OC(CN)C2 (stereo not given) |
| > 50.1 µM |  | CCC1CCCN(Cc2nc(N)c3ccccc3n2)C1 (stereo not given) |
| > 50.1 µM |  | CC(=O)N1CCCN(Cc2csc(-c3ncccn3)n2)CC1 |
| > 50.1 µM |  | Cc1nnc(NCC2(c3ccc(Cl)cc3Cl)CCOCC2)c(C#N)c1C |
| > 50.1 µM |  | CCCc1nc(CN2CCCC2Cn2cncn2)cs1 (stereo not given) |
| > 50.1 µM |  | CC(C)N1CCN(c2ccc3ccc(C(=O)NC4CCCC4)cn23)CC1 |
| > 50.1 µM |  | CC(Cn1cccn1)NC(=O)NCCc1cccnc1 (stereo not given) |
| > 50.1 µM |  | CCOc1ccc(CNCCCn2ccnc2)cc1OC |
| 18.4 µM | 4.896 | CCCC1CCCN(Cc2csc(-c3ncccn3)n2)CC1 (stereo not given) |
| 21.5 µM | 4.694 | CCC(N)C(=O)N1CCC(OCc2ccc(Cl)c(Cl)c2)CC1.Cl (stereo not given) |
| 17.8 µM | 4.867 | CN1CCC(N(Cc2ccco2)S(=O)(=O)c2cc(Br)ccc2Br)CC1 |
| 24.2 µM | 4.482 | Cc1nc(C2(O)CCCNCC2)sc1CCOc1ccccc1.Cl (stereo not given) |
| 10.3 µM | 4.813 | CCc1ccc(-c2ncc3c(n2)N(C)CCN(CCN(C)C)C3=O)cc1 |
| 10.7 µM | 4.995 | Cc1c(CN2CC[C@@H](N3CCC(O)CC3)[C@H](O)C2)[nH]c2ccc(Cl)cc12 |
| 13 µM | 4.789 | CC(C)Nc1nc2c(c(NC3CC3)n1)CCN(C1CCOCC1)CC2 |
| 44.3 µM |  | Cc1nc2c(c(NCCc3nc4c(s3)CCCC4)n1)CCNCC2 |
| 14.4 µM | 4.774 | CCOc1ccc(CNCCCn2ccnc2)cc1Br |
